Assay results published in patent US7709482B2, “Polycyclic heteroaryl substituted triazoles useful as Axl inhibitors” (Rigel Pharmaceuticals, Inc., priority 2006, dated 2010).

molecular target: T1, Axl (Homo sapiens, UniProt P30530); assay: Phospho-Akt In-Cell Western Assay (inhibition of Axl activity after Axl-antibody cross-linking); assay type: cell-based; settings: Hela cells, phospho-Akt chemiluminescence normalized to relative cell number; compounds of formula (Ia), Table 1; read-out: IC50
T1 construct: endogenous in cells; host or cells: HeLa cells
T1 sequence (P30530 26-894): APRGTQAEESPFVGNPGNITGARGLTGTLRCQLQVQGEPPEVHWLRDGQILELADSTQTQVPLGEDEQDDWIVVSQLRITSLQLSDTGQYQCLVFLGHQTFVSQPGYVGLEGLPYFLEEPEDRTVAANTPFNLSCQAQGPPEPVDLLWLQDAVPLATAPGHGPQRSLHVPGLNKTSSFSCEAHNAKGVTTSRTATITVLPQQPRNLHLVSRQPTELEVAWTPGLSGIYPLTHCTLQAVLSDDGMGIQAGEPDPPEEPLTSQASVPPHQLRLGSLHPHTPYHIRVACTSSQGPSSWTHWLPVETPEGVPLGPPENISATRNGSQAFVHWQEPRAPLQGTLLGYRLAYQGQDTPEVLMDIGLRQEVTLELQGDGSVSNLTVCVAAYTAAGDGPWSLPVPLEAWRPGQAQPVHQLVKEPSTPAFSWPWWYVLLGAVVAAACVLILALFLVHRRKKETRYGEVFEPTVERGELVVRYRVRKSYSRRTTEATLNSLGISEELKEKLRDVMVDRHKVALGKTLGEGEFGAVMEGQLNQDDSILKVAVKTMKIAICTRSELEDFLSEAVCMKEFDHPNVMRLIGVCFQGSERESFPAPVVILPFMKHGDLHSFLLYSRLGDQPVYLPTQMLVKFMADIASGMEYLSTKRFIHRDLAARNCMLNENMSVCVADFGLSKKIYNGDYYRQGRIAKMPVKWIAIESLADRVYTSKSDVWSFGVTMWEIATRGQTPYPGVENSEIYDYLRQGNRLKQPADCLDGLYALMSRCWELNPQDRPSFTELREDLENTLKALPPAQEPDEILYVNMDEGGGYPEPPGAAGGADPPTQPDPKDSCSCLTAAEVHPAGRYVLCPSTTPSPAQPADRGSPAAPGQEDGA
Experimental: The compounds of the invention were tested in the following assay for their ability to inhibit Axl activity.
Phospho-Akt In-Cell Western Assay
• Cell culture plate: 96 well assay plate (Corning 3610), white, clear bottom, tissue-culture treated. • Cells: Hela cells. • Starvation medium: For Axl stimulation: 0.5% FCS (fetal calf serum) in DMEM, plus Axl/Fc (extracellular domain of AXL fused to immunoglobulin Fc region) (R&D, 154-AL) 500 ng/mL. • For EGF (epidermal growth factor) stimulation: 0.5% FCS in DMEM (Dulbecco's modified Eagles medium). • Poly-L-Lysine 0.01% solution (the working solution): […], dilute In PBS (phosphate buffered saline). • Axl antibody cross-linking: • 1st: Mouse anti-Axl (R&D, MAB154). • 2nd: Biotin-SP-conjugated AffiniPure goat anti-mouse IgG (H+ L) (Jackson ImmunoResearch #115-065-003). • Fixing buffer: 4% formaldehyde in PBS. • Wash buffer: 0.1% TritonX-100 in PBS. • Quenching buffer: 3% H2O2, 0.1% Azide in wash buffer, Azide and hydrogen peroxide (H2O2) are added fresh. • Blocking buffer: 5% BSA in TBST (tris buffered saline plus 0.1% Tween 20). • Primary antibody: Rabbit anti-human Phospho-Akt antibody (Cell Signaling 9271): 1×250 diluted in blocking buffer. • Secondary antibody: HRP (horse radish peroxidase)-conjugated Goat anti-Rabbit secondary, stock solution: Jackson ImmunoResearch (Goat anti-Rabbit HRP, #111-035-144) 1:1 diluted in glycerol, store at −20° C. The working solution: 1×2000 dilution of stock in blocking buffer. • Chemiluminescent working solution (Pierce, 37030): SuperSignal ELISA (enzyme linked immunosorbant assay) Pico Chemiluminescent substrate. • Crystal Violet solution: Stock: 2.5% Crystal violet in methanol, filtered and kept at ambient temperature. The working solution: dilute the stock 1:20 with PBS immediately before use. • 10% SDS: working solution: 5% SDS (sodium dodecylsulfate), diluted in PBS Methods: Day 1:
A 96 well TC (tissue culture treated) plate was coated with 10 μg/mL poly-L-Lysine at 37° C. for 30 min, washed twice with PBS, and air-dried for 5 minutes before cells were added. Hela cells were seeded at 10,000 cells/well and the cells were starved in 100 μL starvation medium containing Axl/Fc for 24 hrs.
The cells were pre-treated with test compounds by adding 100 μL of 2× test compound to the starvation medium on the cells. The cells were incubated at 37° C. for 1 hr before stimulation.
The resulting mix was warmed to 37° C. 50 μL of 5×Axl 1st/2nd of antibody cluster was added to the cells and the cells were incubated at 37° C. for 5 min.
After 5 minutes stimulation, the plate was flicked to remove medium and the plate was tapped onto paper towels. Formaldehyde (4.0% in PBS, 100 μL) was added to fix the cells and the cells were incubated at ambient temperature for 20 min without shaking.
The cells were washed with a plate washer buffer to remove the formaldehyde solution. The plate was flicked to removed excess wash buffer and tapped onto paper towels. Quenching buffer (100 μL) was added to each well and the cells were incubated at ambient temperature for 20 minutes without shaking.
The cells were washed with a plate washer buffer to remove the quenching buffer. Blocking buffer (100 μL) was added and the cells were incubated at ambient temperature for at least an hour with gentle shaking.
The cells were washed with a plate washer buffer and diluted primary antibody (50 μL) was added to each well (blocking buffer was added to the negative control wells instead). The plates were incubated overnight at 4° C. with gentle shaking.
The wash buffer was removed, diluted secondary antibody (100 μL) was added, and the cells were incubated at ambient temperature for 1 hour with gentle shaking. During the incubation, the chemiluminescent reagent was brought to ambient temperature.
The secondary antibody was removed by washing the cells 1× with wash buffer, 1× with PBS by plate washer.

SMILES	IC50 [nM]
Nc1nc(Nc2ccc(C(=O)N3CCC(N4CCCC4)CC3)cc2)nn1-c1cc2c(nn1)-c1ccccc1CCC2 [Compound 22, 1-(6,7-dihydro-5H-benzo[6,7]cyclohepta[1,2-c]pyridazin-3-yl)-N^3-(4-((4-(pyrrolidin-1-yl)piperidin-1-yl)carbonyl)phenyl)-1H-1,2,4-triazole-3,5-diamine]	< 1000
Nc1nc(Nc2ccc3c(c2)CCC(NC2CC4CCC2C4)CC3)nn1-c1cc2c(nn1)-c1ccccc1CCC2 (centres unmarked) [Compound 23, 1-(6,7-dihydro-5H-benzo[6,7]cyclohepta[1,2-c]pyridazin-3-yl)-N^3-(7-((bicyclo[2.2.1]heptan-2-yl)amino)-6,7,8,9-tetrahydro-5H-benzo[7]annulene-2-yl)-1H-1,2,4-triazole-3,5-diamine]	< 1000
CN(C1CCc2ccc(Nc3nc(N)n(-c4cc5c(nn4)-c4ccccc4CCC5)n3)cc2CC1)C1CC2CCC1C2 (centres unmarked) [Compound 24, 1-(6,7-dihydro-5H-benzo[6,7]cyclohepta[1,2-c]pyridazin-3-yl)-N^3-(7-((bicyclo[2.2.1]heptan-2-yl)(methyl)amino)-6,7,8,9-tetrahydro-5H-benzo[7]annulene-2-yl)-1H-1,2,4-triazole-3,5-diamine]	1000 to 10000
Nc1nc(Nc2ccc(N3CCCN(C4CCCC4)CC3)nc2)nn1-c1cc2c(nn1)-c1ccccc1CCC2 [Compound 25, 1-(6,7-dihydro-5H-benzo[6,7]cyclohepta[1,2-c]pyridazin-3-yl)-N^3-(6-(4-cyclopentyl-1,4-diazepan-1-yl)pyridin-3-yl)-1H-1,2,4-triazole-3,5-diamine]	< 1000
Nc1nc(Nc2cnc3c(c2)CCN(C2CCCC2)CC3)nn1-c1cc2c(nn1)-c1ccccc1CCC2 [Compound 26, 1-(6,7-dihydro-5H-benzo[6,7]cyclohepta[1,2-c]pyridazin-3-yl)-N^3-(7-cyclopentyl-6,7,8,9-tetrahydro-5H-pyrido[3,2-d]azepin-3-yl)-1H-1,2,4-triazole-3,5-diamine]	1000 to 10000
CN1CCN(c2ccc(Nc3nc(N)n(-c4cc5c(nn4)-c4ccccc4CCC5)n3)cn2)CC1 [Compound 27, 1-(6,7-dihydro-5H-benzo[6,7]cyclohepta[1,2-c]pyridazin-3-yl)-N^3-(6-(4-methylpiperazin-1-yl)pyridin-3-yl)-1H-1,2,4-triazole-3,5-diamine]	< 1000
CN1CCc2ncc(Nc3nc(N)n(-c4cc5c(nn4)-c4ccccc4CCC5)n3)cc2C1 [Compound 28, 1-(6,7-dihydro-5H-benzo[6,7]cyclohepta[1,2-c]pyridazin-3-yl)-N^3-(6-methyl-5,6,7,8-tetrahydro-1,6-naphthyridin-3-yl)-1H-1,2,4-triazole-3,5-diamine]	< 1000
Nc1nc(Nc2ccc(N3CCC(N4CCCC4)CC3)nc2)nn1-c1cc2c(nn1)-c1ccccc1CCC2 [Compound 29, 1-(6,7-dihydro-5H-benzo[6,7]cyclohepta[1,2-c]pyridazin-3-yl)-N^3-(6-(4-(pyrrolidin-1-yl)piperidin-1-yl)pyridine-3-yl)-1H-1,2,4-triazole-3,5-diamine]	1000 to 10000
CN1CCN(C2CCN(c3ccc(Nc4nc(N)n(-c5cc6c(nn5)-c5ccccc5CCC6)n4)cn3)CC2)CC1 [Compound 30, 1-(6,7-dihydro-5H-benzo[6,7]cyclohepta[1,2-c]pyridazin-3-yl)-N^3-(6-(4-(4-methylpiperazin-1-yl)piperidin-1-yl)pyridine-3-yl)-1H-1,2,4-triazole-3,5-diamine]	< 1000
CN1CCN(C(=O)C2CCc3ncc(Nc4nc(N)n(-c5cc6c(nn5)-c5ccccc5CCC6)n4)cc3C2)CC1 (centres unmarked) [Compound 31, 1-(6,7-dihydro-5H-benzo[6,7]cyclohepta[1,2-c]pyridazin-3-yl)-N^3-(6-(4-methylpiperazin-1-yl)carbonyl-5,6,7,8-tetrahydroquinolin-3-yl)-1H-1,2,4-triazole-3,5-diamine]	< 1000
CCN(CC)C1CCN(c2ccc(Nc3nc(N)n(-c4cc5c(nn4)-c4ccccc4CCC5)n3)cc2F)C1 (centres unmarked) [Compound 32, 1-(6,7-dihydro-5H-benzo[6,7]cyclohepta[1,2-c]pyridazin-3-yl)-N^3-(3-fluoro-4-(3-(diethylamino)pyrrolidin-1-yl)phenyl)-1H-1,2,4-triazole-3,5-diamine]	< 1000
Nc1nc(Nc2ccc(N3CCN(C4CC5CCC4C5)CC3)cc2)nn1-c1cc2c(nn1)-c1ccccc1CCC2 (centres unmarked) [Compound 33, 1-(6,7-dihydro-5H-benzo[6,7]cyclohepta[1,2-c]pyridazin-3-yl)-N^3-(4-(4-(bicyclo[2.2.1]heptan-2-yl)piperazin-1-yl)phenyl)-1H-1,2,4-triazole-3,5-diamine]	1000 to 10000
CN1CCN(c2ccc(Nc3nc(N)n(-c4cc5c(nn4)-c4ccccc4CCC5)n3)cc2)CC1 [Compound 34, 1-(6,7-dihydro-5H-benzo[6,7]cyclohepta[1,2-c]pyridazin-3-yl)-N^3-(4-(4-methylpiperazin-1-yl)phenyl)-1H-1,2,4-triazole-3,5-diamine]	< 1000
CN1CCN(Cc2ccc(Nc3nc(N)n(-c4cc5c(nn4)-c4ccccc4CCC5)n3)cc2)CC1 [Compound 35, 1-(6,7-dihydro-5H-benzo[6,7]cyclohepta[1,2-c]pyridazin-3-yl)-N^3-(4-((4-methylpiperazin-1-yl)methyl)phenyl)-1H-1,2,4-triazole-3,5-diamine]	< 1000
CCN(CC)C1CCN(c2ccc(Nc3nc(N)n(-c4cc5c(nn4)-c4ccccc4CCC5)n3)cc2F)CC1 [Compound 36, 1-(6,7-dihydro-5H-benzo[6,7]cyclohepta[1,2-c]pyridazin-3-yl)-N^3-(3-fluoro-4-(4-(diethylamino)piperidin-1-yl)phenyl)-1H-1,2,4-triazole-3,5-diamine]	< 1000
Nc1nc(Nc2ccc(OCCN3CCCC3)cc2)nn1-c1ncnc2c1CCCc1ccccc1-2 [Compound 37, 1-(6,7-dihydro-5H-benzo[6,7]cyclohepta[1,2-d]pyrimidin-4-yl)-N^3-(4-(2-(pyrrolidin-1-yl)ethoxy)phenyl)-1H-1,2,4-triazole-3,5-diamine]	< 1000
Nc1nc(Nc2ccc(N3CCN(C4CC5CCC4C5)CC3)cc2)nn1-c1ncnc2c1CCCc1ccccc1-2 (centres unmarked) [Compound 38, 1-(6,7-dihydro-5H-benzo[6,7]cyclohepta[1,2-d]pyrimidin-4-yl)-N3-(4-(4-(bicyclo[2.2.1]heptan-2-yl)piperazin-1-yl)phenyl)-1H-1,2,4-triazole-3,5-diamine]	< 1000
